Source: patent US12447146B2, “Topical composition comprising tacrolimus” (MC2 Therapeutics Limited, priority 2016, dated 2025)

Test: Solubility of tacrolimus in oil solvents measured by HPLC
Type: physicochemical
Method: In this Example, the solubility of tacrolimus in various oil solvents was measured by HPLC.
Approximately 40 mg of tacrolimus was weighed and a known quantity (1-2 g) of oil was added and stirred for 5 hours at room temperature. […] If the tacrolimus appeared to be fully dissolved in under 10 g of oil the sample was then placed at 4° C. overnight. If the tacrolimus precipitated out after cold storage further oil was added and the above steps were repeated until dissolved or the 10 g of oil had been added. All samples were then centrifuged to ensure any non-dissolved tacrolimus was removed and the supernatant analysed by HPLC as described in Example 1.

C=CC[C@@H]1/C=C(\C)C[C@H](C)C[C@H](OC)[C@H]2O[C@@](O)(C(=O)C(=O)N3CCCC[C@H]3C(=O)O[C@H](/C(C)=C/[C@@H]3CC[C@@H](O)[C@H](OC)C3)[C@H](C)[C@@H](O)CC1=O)[C@H](C)C[C@@H]2OC [tacrolimus]
Solubility (% wt) (tacrolimus in Capric caprylic trigylcerides): 0.44 % wt | Solubility (% wt) (tacrolimus in Castor oil): 1.44 % wt | Solubility (% wt) (tacrolimus in Cyclomethicone): 0.004 % wt | Solubility (% wt) (tacrolimus in Dibutyl adipate, room temperature, then 4° C. overnight, *assay within 95% of theoretical maximum, likely solubility greater than stated): 3.24* % wt | Solubility (% wt) (tacrolimus in Diethyl sebacate, room temperature, then 4° C. overnight, *assay within 95% of theoretical maximum, likely solubility greater than stated): 3.26* % wt | Solubility (% wt) (tacrolimus in Diisopropyl adipate, room temperature, then 4° C. overnight, *assay within 95% of theoretical maximum, likely solubility greater than stated): 3.08* % wt | Solubility (% wt) (tacrolimus in Dimethicone): 0.004 % wt | Solubility (% wt) (tacrolimus in Heptylmethylnonane): 0.006 % wt | Solubility (% wt) (tacrolimus in Isopropyl isostearate): 0.19 % wt | Solubility (% wt) (tacrolimus in Isopropyl myristate): 0.25 % wt | Solubility (% wt) (tacrolimus in Isopropyl palmitate): 0.26 % wt | Solubility (% wt) (tacrolimus in Mineral oil): 0.003 % wt
